This passage reports IC50 results from US20240116985A1, “STAPLED PEPTIDES AND METHODS THEREOF” (priority 2020, published 2024).

pIC50: −log10 of the molar value.

The assay addresses T1, full-length beta-Catenin (Uniprot ID P35222) (Homo sapiens, UniProt P35222).
T1 construct: 10 nM full-length beta-Catenin (Uniprot ID P35222)
T1 sequence (P35222 1-781): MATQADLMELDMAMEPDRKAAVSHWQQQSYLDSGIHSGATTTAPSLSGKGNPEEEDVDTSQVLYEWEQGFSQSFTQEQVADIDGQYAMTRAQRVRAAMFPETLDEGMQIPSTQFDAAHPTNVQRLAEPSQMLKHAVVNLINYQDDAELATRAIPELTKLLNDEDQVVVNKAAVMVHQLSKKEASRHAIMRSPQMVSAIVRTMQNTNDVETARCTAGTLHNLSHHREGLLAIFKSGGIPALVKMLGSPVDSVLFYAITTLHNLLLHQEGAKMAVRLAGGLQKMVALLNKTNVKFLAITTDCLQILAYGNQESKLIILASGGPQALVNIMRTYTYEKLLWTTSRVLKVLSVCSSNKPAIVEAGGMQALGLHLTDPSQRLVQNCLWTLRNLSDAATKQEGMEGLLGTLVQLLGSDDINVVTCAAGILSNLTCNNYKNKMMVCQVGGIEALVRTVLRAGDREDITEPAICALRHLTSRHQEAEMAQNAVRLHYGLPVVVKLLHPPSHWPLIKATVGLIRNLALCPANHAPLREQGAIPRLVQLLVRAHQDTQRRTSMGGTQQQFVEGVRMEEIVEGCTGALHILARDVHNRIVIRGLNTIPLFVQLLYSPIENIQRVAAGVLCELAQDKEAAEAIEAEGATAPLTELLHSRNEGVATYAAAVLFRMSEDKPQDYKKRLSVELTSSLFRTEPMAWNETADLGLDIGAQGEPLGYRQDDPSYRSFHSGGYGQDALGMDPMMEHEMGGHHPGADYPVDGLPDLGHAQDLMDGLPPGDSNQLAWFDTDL
The assay is described as follows: Fluorescence polarization IC50 (beta-catenin / 5FAM-TCF4 10-53 competition). It counts as binding. To be noted: fluorescence polarization; read-out: beta-Catenin FP IC50.
Regarding `CCNC(=O)CC[C@H](NC(=O)[C@H](Cc1csc2ccccc12)NC(=O)[C@H](Cc1ccsc1)NC(=O)[C@]12CCN(C1)C(=O)OCCCC=CCCCC1(CCCC=CC[C@]3(CCCN3C(C)=O)C(=O)N[C@@H](CC(=O)O)C(=O)N[C@@H](CC(C)(C)C)C(=O)N1)C(=O)N[C@@H](CC(=O)O)C(=O)N[C@@H](Cc1cccc(C(=O)O)c1)C(=O)NC(C)(C)C(=O)N[C@@H](C)C(=O)N[C@@H](Cc1ccccc1)C(=O)N[C@@H](CC)C(=O)N2)C(=O)N[C@@H](C)C(N)=O` (stereo partly drawn) [I-2473, Ac-PL3-Asp-Npg-B5-Asp-3COOHF-Aib-Ala-Phe-Abu-PyrS2-3Thi-BztA-[NHEt]GlnR-Ala-NH2], the pIC50 is 8.15.

With `CC[C@@H]1NC(=O)[C@H](Cc2ccccc2)NC(=O)[C@H](C)NC(=O)C(C)(C)NC(=O)[C@H](Cc2cccc(C(=O)O)c2)NC(=O)[C@H](CC(=O)O)NC(=O)C2(CCCC=CCCCOC(=O)N3CC[C@@](C(=O)N[C@@H](Cc4ccsc4)C(=O)N[C@@H](Cc4csc5ccccc45)C(=O)N[C@@H](CCC(=O)N4CCCCC4)C(=O)N[C@@H](C)C(N)=O)(C3)NC1=O)CCCC=CC[C@]1(CCCN1C(C)=O)C(=O)N[C@@H](CC(=O)O)C(=O)N[C@@H](CC(C)(C)C)C(=O)N2` (stereo partly drawn) [I-2476, Ac-PL3-Asp-Npg-B5-Asp-3COOHF-Aib-Ala-Phe-Abu-PyrS2-3Thi-BztA-[Pip]GlnR-Ala-NH2], the pIC50 was 8.15.

Regarding `CC(=O)N1CCC[C@]12CC=CCCCC1(CCCC=CCCCOC(=O)N3CC[C@@](C(=O)N[C@@H](Cc4ccsc4)C(=O)N[C@@H](Cc4csc5ccccc45)C(=O)N[C@@H](CC(C)C)C(N)=O)(C3)NC(=O)[C@H](CC(N)=O)NC(=O)[C@H](Cc3ccccc3)NC(=O)[C@H](C)NC(=O)C(C)(C)NC(=O)[C@H]([C@@H](C)O)NC(=O)[C@H](CC(N)=O)NC1=O)NC(=O)[C@H](CC(C)(C)C)NC(=O)[C@H](CC(=O)O)NC2=O` (stereo partly drawn) [I-2479, Ac-PL3-Asp-Npg-B5-Asn-Thr-Aib-Ala-Phe-Asn-PyrS2-3Thi-BztA-Leu-NH2], the pIC50 was 6.20.

For the compound `CC(=O)N1CCC[C@]12CC=CCCCC1(CCCC=CCCCOC(=O)N3CC[C@@](C(=O)N[C@@H](Cc4ccsc4)C(=O)N[C@@H](Cc4csc5ccccc45)C(=O)N[C@H](C(N)=O)C(C)C)(C3)NC(=O)[C@H](CC(N)=O)NC(=O)[C@H](Cc3ccccc3)NC(=O)[C@H](C)NC(=O)C(C)(C)NC(=O)[C@H]([C@@H](C)O)NC(=O)[C@H](CC(N)=O)NC1=O)NC(=O)[C@H](CC(C)(C)C)NC(=O)[C@H](CC(=O)O)NC2=O` (stereo partly drawn) [I-2480, Ac-PL3-Asp-Npg-B5-Asn-Thr-Aib-Ala-Phe-Asn-PyrS2-3Thi-BztA-Val-NH2], the negative-log IC50 (pIC50) was 6.32.

As to `CC(=O)N1CCC[C@]12CC=CCCCC1(CCCC=CCCCOC(=O)N3CC[C@@](C(=O)N[C@@H](Cc4ccsc4)C(=O)N[C@@H](Cc4csc5ccccc45)C(=O)N[C@@H](Cc4c[nH]c5ccccc45)C(N)=O)(C3)NC(=O)[C@H](CC(N)=O)NC(=O)[C@H](Cc3ccccc3)NC(=O)[C@H](C)NC(=O)C(C)(C)NC(=O)[C@H]([C@@H](C)O)NC(=O)[C@H](CC(N)=O)NC1=O)NC(=O)[C@H](CC(C)(C)C)NC(=O)[C@H](CC(=O)O)NC2=O` (stereo partly drawn) [I-2481, Ac-PL3-Asp-Npg-B5-Asn-Thr-Aib-Ala-Phe-Asn-PyrS2-3Thi-BztA-Trp-NH2], the pIC50 is 6.12.

Take `CC(=O)N1CCC[C@]12CC=CCCCC1(CCCC=CCCCOC(=O)N3CC[C@@](C(=O)N[C@@H](Cc4ccsc4)C(=O)N[C@@H](Cc4csc5ccccc45)C(=O)N[C@@H](CCC(N)=O)C(N)=O)(C3)NC(=O)[C@H](CC(C)C)NC(=O)[C@H](Cc3ccccc3)NC(=O)[C@H](C)NC(=O)[C@H](C)NC(=O)[C@H](Cn3cc(CC4(C(=O)O)CC4)nn3)NC(=O)[C@H](CC(=O)O)NC1=O)NC(=O)[C@H](CC(C)(C)C)NC(=O)[C@H](CC(=O)O)NC2=O` (stereo partly drawn) [I-2482, Ac-PL3-Asp-Npg-B5-Asp-[CH2CCpCO2H]TriAzDap-Ala-Ala-Phe-Leu-PyrS2-3Thi-BztA-Gln-NH2]: the pIC50 is 8.30.

With `CC(=O)N1CCC[C@]12CC=CCCCC1(CCCC=CCCCOC(=O)N3CC[C@@](C(=O)N[C@@H](Cc4ccsc4)C(=O)N[C@@H](Cc4csc5ccccc45)C(=O)N[C@@H](CCC(N)=O)C(N)=O)(C3)NC(=O)[C@H](CC(C)C)NC(=O)[C@H](Cc3ccccc3)NC(=O)[C@H](C)NC(=O)[C@H](C)NC(=O)[C@H](Cn3cc(CC4(C(=O)O)CCCCC4)nn3)NC(=O)[C@H](CC(=O)O)NC1=O)NC(=O)[C@H](CC(C)(C)C)NC(=O)[C@H](CC(=O)O)NC2=O` (stereo partly drawn) [I-2483, Ac-PL3-Asp-Npg-B5-Asp-[CH2CChCO2H]TriAzDap-Ala-Ala-Phe-Leu-PyrS2-3Thi-BztA-Gln-NH2], the pIC50 is 8.30.

As to `CC(=O)N1CCC[C@]12CC=CCCCC1(CCCC=CCCCOC(=O)N3CC[C@@](C(=O)N[C@@H](Cc4ccccc4)C(=O)N[C@@H](Cc4csc5ccccc45)C(=O)N[C@@H](CC(=O)N4CCOCC4)C(N)=O)(C3)NC(=O)[C@H](CC(C)C)NC(=O)[C@H](Cc3ccccc3)NC(=O)[C@H](C)NC(=O)[C@H](CCO)NC(=O)[C@H](CCC(N)=O)NC(=O)[C@H](CC(=O)O)NC1=O)NC(=O)[C@H](CC1CCCCC1)NC(=O)[C@H](CC(N)=O)NC2=O` (stereo partly drawn) [I-2498, Ac-PL3-Asn-Cha-B5-Asp-Gln-Hse-Ala-Phe-Leu-PyrS2-Phe-BztA-MorphAsn-NH2], the pIC50 was 6.35.

In the case of `CC(=O)N1CCC[C@]12CC=CCCCC1(CCCC=CCCCOC(=O)N3CC[C@@](C(=O)N[C@@H](Cc4ccccc4)C(=O)N[C@@H](Cc4csc5ccccc45)C(=O)N[C@@H](CC(=O)N4CCOCC4)C(N)=O)(C3)NC(=O)[C@H](CC(C)C)NC(=O)[C@H](Cc3ccccc3)NC(=O)[C@H](C)NC(=O)[C@H]([C@@H](C)O)NC(=O)[C@H](CCC(N)=O)NC(=O)[C@H](CC(=O)O)NC1=O)NC(=O)[C@H](CC1CCCCC1)NC(=O)[C@H](CC(N)=O)NC2=O` (stereo partly drawn) [I-2503, Ac-PL3-Asn-Cha-B5-Asp-Gln-Thr-Ala-Phe-Leu-PyrS2-Phe-BztA-MorphAsn-NH2], the pIC50 was 5.88.

Consider `CC(=O)N1CCC[C@]12CC=CCCCCC1(CCCCC=CCOC(=O)N3CC[C@@](C(=O)N[C@@H](Cc4ccccc4C(F)(F)F)C(=O)N[C@@H](Cc4csc5ccccc45)C(=O)N[C@@H](CCC(N)=O)C(N)=O)(C3)NC(=O)[C@H](CC(C)C)NC(=O)[C@H](Cc3ccccc3)NC(=O)[C@H](C)NC(=O)[C@H](C)NC(=O)[C@H](Cc3cccc(C(=O)O)c3)NC(=O)[C@H](CC(=O)O)NC1=O)NC(=O)[C@H](CC(C)(C)C)NC(=O)[C@H](CC(=O)O)NC2=O` (stereo partly drawn) [I-2505, Ac-PL3-Asp-Npg-B6-Asp-3COOHF-Ala-Ala-Phe-Leu-PyrS-2F3MeF-BztA-Gln-NH2], for which the negative-log IC50 (pIC50) is 6.16.

For the compound `CC(=O)N1CCC[C@]12CC=CCCCCC1(CCCCC=CCOC(=O)N3CC[C@@](C(=O)N[C@@H](Cc4ccccc4C(F)(F)F)C(=O)N[C@@H](Cc4csc5ccccc45)C(=O)N[C@@H](C)C(N)=O)(C3)NC(=O)[C@H](CC(C)C)NC(=O)[C@H](Cc3ccccc3)NC(=O)[C@H](C)NC(=O)[C@H](CCC(N)=O)NC(=O)[C@H](Cc3cccc(C(=O)O)c3)NC(=O)[C@H](CC(=O)O)NC1=O)NC(=O)[C@H](CC(C)(C)C)NC(=O)[C@H](CC(=O)O)NC2=O` (stereo partly drawn) [I-2506, Ac-PL3-Asp-Npg-B6-Asp-3COOHF-Gln-Ala-Phe-Leu-PyrS-2F3MeF-BztA-Ala-NH2], the pIC50 is 6.48.

For `CC(=O)N1CCC[C@]12CC=CCCCCC1(CCCCC=CCOC(=O)N3CC[C@@](C(=O)N[C@@H](Cc4ccccc4C(F)(F)F)C(=O)N[C@@H](Cc4csc5ccccc45)C(=O)N[C@@H](C)C(N)=O)(C3)NC(=O)[C@H](CC(C)C)NC(=O)[C@H](Cc3ccccc3)NC(=O)[C@H](C)NC(=O)[C@H](CCC(N)=O)NC(=O)[C@H](Cc3cccc(C(=O)O)c3)NC(=O)[C@H](CC(=O)O)NC1=O)NC(=O)[C@H](CC(C)(C)C)NC(=O)[C@H](CC(=O)O)NC2=O` (stereo partly drawn) [I-2507, Ac-PL3-Asp-Npg-B6-Asp-3COOHF-Gln-Ala-Phe-Leu-PyrS-2F3MeF-BztA-Ala-NH2], the pIC50 was 6.77.

As to `CC(=O)N1CCC[C@]12CC=CCCCCC1(CCCCC=CCCOC(=O)N3CC[C@@](C(=O)N[C@@H](Cc4ccccc4C(F)(F)F)C(=O)N[C@@H](Cc4csc5ccccc45)C(=O)N[C@@H](CCC(N)=O)C(N)=O)(C3)NC(=O)[C@H](CC(C)C)NC(=O)[C@H](Cc3ccccc3)NC(=O)[C@H](C)NC(=O)[C@H](C)NC(=O)[C@H](Cc3cccc(C(=O)O)c3)NC(=O)[C@H](CC(=O)O)NC1=O)NC(=O)[C@H](CC(C)(C)C)NC(=O)[C@H](CC(=O)O)NC2=O` (stereo partly drawn) [I-2509, Ac-PL3-Asp-Npg-B6-Asp-3COOHF-Ala-Ala-Phe-Leu-PyrS1-2F3MeF-BztA-Gln-NH2], the pIC50 was 7.77.

Turning to `CC(=O)N1CCC[C@]12CC=CCCCCC1(CCCCC=CCCCOC(=O)N3CC[C@@](C(=O)N[C@@H](Cc4ccccc4C(F)(F)F)C(=O)N[C@@H](Cc4csc5ccccc45)C(=O)N[C@@H](CCC(N)=O)C(N)=O)(C3)NC(=O)[C@H](CC(C)C)NC(=O)[C@H](Cc3ccccc3)NC(=O)[C@H](C)NC(=O)[C@H](C)NC(=O)[C@H](Cc3cccc(C(=O)O)c3)NC(=O)[C@H](CC(=O)O)NC1=O)NC(=O)[C@H](CC(C)(C)C)NC(=O)[C@H](CC(=O)O)NC2=O` (stereo partly drawn) [I-2511, Ac-PL3-Asp-Npg-B6-Asp-3COOHF-Ala-Ala-Phe-Leu-PyrS2-2F3MeF-BztA-Gln-NH2], the pIC50 is 6.25.
